Assay results reported in patent US11503826B2, “Low volatility auxin herbicide formulations” (priority 2009, dated 2022).
Where a name gives a salt, the structure may show the parent alone. Read-outs that look alike come from different tables or passages of the source.

Assays:
[1] = Aqueous solubility of dicamba acid and dicamba salts; settings: for aqueous solubility wt % a.i. @20° C.: dicamba salts; for Comments (crystal formation): dicamba salt solutions; for solubility 20° C. a.e.: 0.45 micron filter, HPLC
Text: The solution was then passed through a 0.45 micron filter and assayed by HPLC for soluble dicamba.

[2] = format: physicochemical; settings: 38.5 wt % a.e. solutions (Table 4i)
Experimental: In a further set of experiments, measurements of dicamba concentration in the gas phase (air) above 38.5 wt % a.e. solutions of various dicamba salts was measured. 5 mL of each sample of dicamba was placed into a 50 mL plastic centrifuge tube with four holes approximately ⅛ in diameter drilled into the tube at the 10 mL line. A 22 mm×30 mm PUF (SKC ct. #226-124) was placed into a glass tube of app. 20 mm diameter with parafilm wrapped around the outside to obtain a snug fit into the top of the centrifuge tube. A hose was connected to the other end of the glass tube leading to a vacuum line. The air flow was regulated to app. 2 L/min using a flow controller (about 0.4 L air/min-mL sample). Air was pulled through the tube at […] for approximately 1 day. Note that the air conditions of flow rate, temperature, pressure and composition (e.g., relative humidity) are not narrowly critical as long as the various samples are analyzed under similar conditions. For instance, air at from about 5° C. to about 40° C., from about 0.5 to about 1.5 bar pressure, from about 0% to about 95% relative humidity, and at a flow rate of from about 0.1 to 10 L/min-mL sample could be suitably used for volatility analysis. The PUF was removed from the glass tube, extracted with 20 mL methanol and the resulting solution analyzed for dicamba concentration by LC-MS. The results are shown in Table 4i below where “wt % a.e.” refers to the dicamba concentration, “μg/mL” refers to the dicamba concentration in the distillate, “μg dicamba” refers to the total dicamba extracted from the PUF by 20 mL methanol, and “ng/L air” and “moles/L air” refer to the dicamba concentration in the gas phase above the solution.

eyes of rabbit = system: eyes of rabbit
Experimental: Eye irritation measurement can be done according to the methods provided in U.S. Environmental Protection Agency Office of Prevention, Pesticides and Toxic Substances, Health Effects Test Guidelines (for example, OPPTS 870.2400 Acute Eye Irritation, August 1998).
The eye irritation potential of an aqueous formulation of the present invention was evaluated. […] Eye irritation testing was done according to the methods provided in U.S. Environmental Protection Agency Office of Prevention, Pesticides and Toxic Substances, Health Effects Test Guidelines: OPPTS 870.2400 Acute Eye Irritation. The eyes of 3 rabbit animals were treated with the formulation and were scored for effects on the cornea, iris, and conjunctivae (redness, swelling and discharge).

[3] = Distillation volatility: dicamba in distillate by HPLC/MS; format: physicochemical; settings: for ppm Dicamba in distillate: Table 4h summary, 5% a.e. salt solution
Experimental: The pH was measured on a standard Orion Model 320 pH meter of each neat solution.
Simple distillation using a short path still was used to collect the water distillate containing the dicamba in the vapor phase of the salt solutions. A 50 mL distillation flask was used. The distillation receiver was a “cow” type with four 2 mL graduated sections. The solutions were heated at the 30% setting of the GlassCol heating unit and the boiling point of each distillation was noted. The first 2 ml of distillate was collected, and the receiver rotated to avoid collection of any further distillate in that section as the distillation flask cooled. The 2 mL sample was quantitatively transferred by pipette to HPLC vials for later analysis. Between each distillation the distillation apparatus was washed with 10 volumes of tap water, 10 volumes of distilled water, rinsed with acetone, and dried in a 60° C. oven. Each distillation was run in triplicate.
The distillate was collected and analyzed for dicamba concentration using HPLC/Mass Spectroscopy (MS). The HPLC column was an Agilent Zorbax Eclipse XDB-C8, 4.6×150 mm, 5u, PN 993967-90. Mobile phase A was 0.1% formic acid in D.I. water. Mobile phase B was 0.1% formic acid in acetonitrile. A flow rate of 1.2 mL/min was used and an injection volume of 5, 10, 15 or 25 ul was used depending on the dicamba level in the sample. The following gradient was used: […]
The MS parameters were as follows: Type SIR; ES-ion mode; 0.05 second inter channel delay; 0.05 second interscan time; 0.5 span (Da); 10 minutes elapsed time; and 6-6000 ppb calibration range. […] Channel 2 mass was 177 (Da); Dwell was 0.25(s); Cone(V)=tune and; 0.05(s) delay.

[4] = Tank mix compatibility of dicamba salts with potassium glyphosate; format: physicochemical; settings: for g to crystals: grams dicamba a.e. (35.8% a.e. salt solution) added to […] Roundup POWERMAX solution to induce crystallization or precipitation
Text: The weight of the dicamba solution that caused precipitation was noted. The results are reported in Table 12a below where “salt” refers to the dicamba salt and “g to crystals” refers to the total amount of grams of dicamba a.e. that were required to induce crystallization or precipitation of crystals.

[5] = 5% a.e. DMA Dicamba solution
[6] = 20° C.; 'is believed to have'; cited from earlier work

Question: For `COc1c(Cl)ccc(Cl)c1C(=O)O.NCCO` [Dicamba MEA salt], which “aqueous solubility wt % a.e. @20° C.” value ([1]; Table 10b, second experiment, dicamba acid and salts, 20° C.) is on record?
Answer: 66.1 wt % a.e.

Question: And the “aqueous solubility wt % a.i. @20° C.” value ([1]; Table 10b, second experiment, 20° C.)?
Answer: 84.4 wt % a.i.

Question: What about the “crystal formation from concentrated salt solution” value ([1]; solubility experiment, Example 10) of the same molecule?
Answer: did not form crystals

Question: And the “dicamba concentration in the gas phase above the solution, comparison” value [2]?
Answer: lower than the acid or the sodium, potassium and DMA salts

Question: What about the “gas concentration, times less than the commercial product BANVEL” value [2] of the same molecule?
Answer: ~20 times

Question: And the “time after treatment at which all eyes were free of positive scores” value (eyes of rabbit; 61 wt % a.e., pH 8.5)?
Answer: 7 days

Question: And the “time by which all eyes were free of all irritation” value (eyes of rabbit; 61 wt % a.e., pH 8.5)?
Answer: ≤ 10 days

Question: What about the “eye irritation rating in words” value (eyes of rabbit; Example 16: 61 wt % a.e. aqueous MEA dicamba, pH 8.5, 3 rabbits, b51: concentrate formulations at pH about 8) of the same molecule?
Answer: moderately irritating

Question: What about the “ocular findings in all treated eyes” value (eyes of rabbit; within 24 hours after treatment, 61 wt % a.e., pH 8.5) of the same molecule?
Answer: corneal opacity, iritis and conjunctivitis

Question: With `COc1c(Cl)ccc(Cl)c1C(=O)O` [Dicamba sodium salt, reference compound] as the molecule, how does the “Mean Dicamba in Distillate” value ([3]; 1% a.e. dicamba, solution pH 3.31) read?
Answer: 3.42 ppm

Question: And the “Mean Dicamba in Distillate” value ([3]; 1% a.e. dicamba, solution pH 4.25)?
Answer: 0.70 ppm

Question: And the “Mean Dicamba in Distillate” value ([3]; 1% a.e. dicamba, solution pH 6.19)?
Answer: 0.13 ppm

Question: What about the “Mean Dicamba in Distillate” value ([3]; 1% a.e. dicamba, solution pH 9.82) of the same molecule?
Answer: 0.09 ppm

Question: And the “Mean Dicamba in Distillate” value ([3]; 1% a.e. dicamba, solution pH 11.15)?
Answer: 0.06 ppm

Question: What about the “Mean Dicamba in Distillate” value ([3]; 2% a.e. dicamba, solution pH 3.33) of the same molecule?
Answer: 5.74 ppm

Question: And the “Mean Dicamba in Distillate” value ([3]; 2% a.e. dicamba, solution pH 4.29)?
Answer: 1.39 ppm

Question: What about the “Mean Dicamba in Distillate” value ([3]; 2% a.e. dicamba, solution pH 6.28) of the same molecule?
Answer: 0.32 ppm

Question: And the “Mean Dicamba in Distillate” value ([3]; 2% a.e. dicamba, solution pH 9.93)?
Answer: 0.16 ppm

Question: And the “Mean Dicamba in Distillate” value ([3]; 2% a.e. dicamba, solution pH 11.50)?
Answer: 0.15 ppm

Question: What about the “Mean Dicamba in Distillate” value ([3]; 5% a.e. dicamba, solution pH 3.36) of the same molecule?
Answer: 11.57 ppm

Question: What about the “Mean Dicamba in Distillate” value ([3]; 5% a.e. dicamba, solution pH 4.34) of the same molecule?
Answer: 2.36 ppm

Question: What about the “Mean Dicamba in Distillate” value ([3]; 5% a.e. dicamba, solution pH 6.32) of the same molecule?
Answer: 0.77 ppm

Question: What about the “Mean Dicamba in Distillate” value ([3]; 5% a.e. dicamba, solution pH 10.36) of the same molecule?
Answer: 0.45 ppm

Question: And the “Mean Dicamba in Distillate” value ([3]; 5% a.e. dicamba, solution pH 12.15)?
Answer: 0.22 ppm

Question: What about the “ppm Dicamba in distillate” value ([3]; pH 6.32) of the same molecule?
Answer: 0.8 ppm

Question: And the “crystallization in the presence of potassium glyphosate” value ([4]; 35.8% a.e. dicamba salt solution added to […] Roundup POWERMAX solution)?
Answer: induced crystallization

Question: And the g to crystals [4]?
Answer: 13.6 g

Question: And the “aqueous solubility Approximate g a.e./L @20° C.” value ([1]; 20° C., listed as sodium salt)?
Answer: 364 g a.e./L

Question: And the “aqueous solubility wt % a.e. @20° C.” value ([1]; 20° C., listed as sodium salt)?
Answer: 36.3 wt % a.e.

Question: What about the “crystal formation on drying on a glass surface” value ([1]; Example 10) of the same molecule?
Answer: formed crystals very readily

Question: And the “Comments (crystal formation)” value ([1]; Table 10a, listed as Na)?
Answer: Crystals form easily

Question: What about the “solubility 0° C. a.e.” value ([1]; Table 10a, dicamba salt, equilibrated 5 to 7 days at 0° C., acid equivalent, listed as Na) of the same molecule?
Answer: 33 wt %

Question: What about the “solubility 0° C. a.i.” value ([1]; Table 10a, dicamba salt, equilibrated 5 to 7 days at 0° C., active ingredient, listed as Na) of the same molecule?
Answer: 36.3 wt %

Question: What about the “solubility 20° C. a.e.” value ([1]; Table 10a, dicamba salt, equilibrated 5 to 7 days at 20° C., acid equivalent, listed as Na) of the same molecule?
Answer: 36.3 wt %

Question: And the “solubility 20° C. a.i.” value ([1]; Table 10a, dicamba salt, equilibrated 5 to 7 days at 20° C., active ingredient, listed as Na)?
Answer: 40.3 wt %

Question: What about the “aqueous solubility wt % a.e. @20° C.” value ([1]; Table 10b, second experiment, dicamba acid and salts, 20° C., listed as sodium salt) of the same molecule?
Answer: 36.3 wt % a.e.

Question: And the “aqueous solubility wt % a.i. @20° C.” value ([1]; Table 10b, second experiment, 20° C., listed as sodium salt)?
Answer: 40.3 wt % a.i.

Question: What does the source list for `CNC.COc1c(Cl)ccc(Cl)c1C(=O)O` [Dicamba DMA salt]?
Answer: pH Solution After Distillation ([5]; starting solution pH 3.60): 3.58; ppm DMA in Distillate ([5]; starting solution pH 3.60): Undetectable; pH Solution After Distillation ([5]; starting solution pH 8.20): 7.04; ppm DMA in Distillate ([5]; starting solution pH 8.20): 400 ppm; pH Solution After Distillation ([5]; starting solution pH 10.10): 6.4; ppm DMA in Distillate ([5]; starting solution pH 10.10): 5000 ppm; amine in the distillate by HPLC analysis ([5]; acidic pH (3.6)): no detectable amine; solubility g a.e./L [6]: ~600 g a.e./L; solubility wt % a.e. [6]: about 45 wt % a.e.

Question: With `NCCOCCO` [DGA] as the molecule, how does the “Mean Dicamba in Distillate” value ([3]; 1% a.e. dicamba, solution pH 4.23) read?
Answer: 0.46 ppm

Question: What about the “Mean Dicamba in Distillate” value ([3]; 1% a.e. dicamba, solution pH 6.48) of the same molecule?
Answer: 0.18 ppm

Question: And the “Mean Dicamba in Distillate” value ([3]; 1% a.e. dicamba, solution pH 8.24)?
Answer: 0.13 ppm

Question: And the “Mean Dicamba in Distillate” value ([3]; 1% a.e. dicamba, solution pH 8.88)?
Answer: 0.12 ppm

Question: What about the “Mean Dicamba in Distillate” value ([3]; 2% a.e. dicamba, solution pH 4.17) of the same molecule?
Answer: 1.10 ppm

Question: What about the “Mean Dicamba in Distillate” value ([3]; 2% a.e. dicamba, solution pH 6.44) of the same molecule?
Answer: 0.31 ppm

Question: And the “Mean Dicamba in Distillate” value ([3]; 2% a.e. dicamba, solution pH 8.22)?
Answer: 0.28 ppm

Question: What about the “Mean Dicamba in Distillate” value ([3]; 2% a.e. dicamba, solution pH 8.92) of the same molecule?
Answer: 0.19 ppm

Question: And the “Mean Dicamba in Distillate” value ([3]; 5% a.e. dicamba, solution pH 4.57)?
Answer: 2.11 ppm

Question: And the “Mean Dicamba in Distillate” value ([3]; 5% a.e. dicamba, solution pH 6.35)?
Answer: 0.75 ppm

Question: And the “Mean Dicamba in Distillate” value ([3]; 5% a.e. dicamba, solution pH 8.26)?
Answer: 0.58 ppm

Question: What about the “Mean Dicamba in Distillate” value ([3]; 5% a.e. dicamba, solution pH 9.03) of the same molecule?
Answer: 0.32 ppm

Question: What about the “ppm Dicamba in distillate” value ([3]; pH 6.35) of the same molecule?
Answer: 0.8 ppm

Question: And the “ppm Dicamba in distillate” value ([3]; pH 8.26)?
Answer: 0.6 ppm

Question: And the Comment ([4]; dicamba salt solution added to […] Roundup POWERMAX solution)?
Answer: CLARITY-clear solution with no

Question: What about the g to crystals [4] of the same molecule?
Answer: >17 g

Question: And the “Comments (crystal formation)” value ([1]; Table 10a)?
Answer: Crystals formed slowly

Question: And the “solubility 20° C. a.e.” value ([1]; Table 10a, dicamba salt, equilibrated 5 to 7 days at 20° C., acid equivalent)?
Answer: <50 wt %
